# Results: PMC6473556, “Targetable Mechanical Properties by Switching between Self‐Sorting and Co‐assembly with In Situ Formed Tripodal Ketoenamine Supramolecular Hydrogels” (Chemnanomat, 2018)
# Key:
# Assay type in all cases: physicochemical
# [1] = Critical gel concentration, inverted vial method; conditions: 0.5 ml water
# Experimental: 3.3 Setting gel using the ex situ prepared compound (gels R1 to R8 inclusively):
# This procedure describes the method used in a typical setting of the hydrogel at 2 wt% using the previously prepared synthesised compound.
# The gel ligand (0.1 g) was suspended in water, to this suspension sodium hydroxide was added (0.05 g, 1.25 mmol). Sonication and gentle heating was used to ensure the ligand had completely dissolved giving a solution with a pH of 9 – 10. To this solution glucono delta-lactone (GdL) (0.08 g, 0.45 mmol) was added and the solution was shaken until the GdL had […]
# 3.4 Setting gel R9 using the ex situ prepared compound:
# This procedure describes the method used in a typical setting of the hydrogel R9 at 2 wt% using the previously prepared synthesised compound R9.
# The synthesised compound R9 (0.1 g, 0.21 mmol) was suspended in water (5 ml), to this suspension sodium hydroxide was added (0.05 g, 1.25 mmol). Sonication and gentle heating was used to ensure the ligand had completely dissolved giving a solution with a pH of 9 – 10.
# To this solution conc. Hydrochloric acid (0.4 ml) was rapidly added instantly producing a […]
# 3.5 Critical gel concentration (CGC):
# Critical gel concentration was determined using the inverted vial method in 2 ml sample vials using 0.5 ml of water. This method can often give lower CGC values than are determined using a rheometer due to the low volume of solution and the high surface tension within the vials.
# [2] = Rheometry of the gels (time, frequency and stress sweeps); conditions: gel at 40 mM gelator concentration, standard deviation in brackets; for Yield stress: rounded to nearest 10; for G′ / G′′: rounded to nearest 100
# Experimental: Another observation is the difference in transparency between the gels (Figure 1). Gels R2 and R6 are noticeably more transparent than the other gels. This transparency is a result of gels R2 and R6 having narrower fibres and therefore scattering less light (Figure S59). […] The responses of the nine presented gels to mechanical stimulus were determined using rheometry (Table 1). Although differences in mechanical properties are apparent when comparing one gel to another the difference between the same gel prepared ex situ and in situ is negligible (see ESI). Once a constant value for G′ had been recording during the time sweep experiments, the gelatinous nature of the materials was confirmed using frequency sweep rheometry.
# For all gels the G′ and G“ values remained constant over a frequency range of 0.1–100 Hz, with the value of G′ several times the value recorded for G” (Figure 3). To examine the gels’ non‐linear rheological behaviour stress sweep experiments were conducted. The defining point of the experiment is the yield stress, below which G′ remains essentially constant, but above which the gel begins to flow (see ESI).
# [3] = Gelation on lowering the pH with glucono-delta-lactone; conditions: in situ reaction at high pH after addition of GdL
Compound,CGC (critical gel concentration) [1],Yield stress [2],G′ [2],G′′ [2],Gelation [3]
O=C1C(=CNc2ccc(C(=O)O)cc2)C(=O)C(=CNc2ccc(C(=O)O)cc2)C(=O)C1=CNc1ccc(C(=O)O)cc1 [R1],0.3 Wt%,140(10) μNm,9000(200) Pa,2300(100) Pa,–
O=C1C(=CNc2ccc(Cl)c(C(=O)O)c2)C(=O)C(=CNc2ccc(Cl)c(C(=O)O)c2)C(=O)C1=CNc1ccc(Cl)c(C(=O)O)c1 [R2],0.2 Wt%,80(20) μNm,12700(100) Pa,3300(200) Pa,–
COc1cc(NC=C2C(=O)C(=CNc3ccc(C(=O)O)c(OC)c3)C(=O)C(=CNc3ccc(C(=O)O)c(OC)c3)C2=O)ccc1C(=O)O [R3],0.5 Wt%,140(20) μNm,10200(300) Pa,2100(100) Pa,–
O=C1C(=CNc2ccc(C(=O)O)cc2O)C(=O)C(=CNc2ccc(C(=O)O)cc2O)C(=O)C1=CNc1ccc(C(=O)O)cc1O [R4],0.4 Wt%,40(10) μNm,9300(200) Pa,2100(200) Pa,–
O=C1C(=CNc2cc(C(=O)O)ccc2O)C(=O)C(=CNc2cc(C(=O)O)ccc2O)C(=O)C1=CNc1cc(C(=O)O)ccc1O [R5],0.4 Wt%,80(20) μNm,10800(200) Pa,3100(400) Pa,–
O=C1C(=CNc2cc(C(=O)O)cc(C(F)(F)F)c2)C(=O)C(=CNc2cc(C(=O)O)cc(C(F)(F)F)c2)C(=O)C1=CNc1cc(C(=O)O)cc(C(F)(F)F)c1 [R6],0.1 Wt%,250(30) μNm,15400(300) Pa,2600(200) Pa,–
COc1c(NC=C2C(=O)C(=CNc3cccc(C(=O)O)c3OC)C(=O)C(=CNc3cccc(C(=O)O)c3OC)C2=O)cccc1C(=O)O [R7],0.5 Wt%,90(30) μNm,8800(200) Pa,2100(300) Pa,–
Cc1cc(NC=C2C(=O)C(=CNc3ccc(C(=O)O)c(C)c3)C(=O)C(=CNc3ccc(C(=O)O)c(C)c3)C2=O)ccc1C(=O)O [R8],0.5 Wt%,70(20) μNm,9600(100) Pa,2500(200) Pa,–
O=C1C(=CNc2ccc(O)cc2)C(=O)C(=CNc2ccc(O)cc2)C(=O)C1=CNc1ccc(O)cc1 [R9],0.9 Wt%,20(40) μNm,1200(100) Pa,300(300) Pa,–
O=C(O)CCCCCNC=C1C(=O)C(=CNCCCCCC(=O)O)C(=O)C(=CNCCCCCC(=O)O)C1=O [R10],–,–,–,–,no gelation
